Experimental data from patent US20200216417A1, “INHIBITORS OF FIBROBLAST ACTIVATION PROTEIN” (Praxis Biotech LLC, priority 2019, published 2020).
pIC50: −log10 of the molar value.

Columns and labels:
circulating FAPα [1] = target: T1, circulating FAPα (Homo sapiens, UniProt Q12884); test: Ex vivo inhibition of circulating FAPα activity from human plasma (PRXS-AMC); format: biochemical
T1 construct: from tissue; host or cells: human plasma (EDTA-K2) from healthy volunteers
T1 sequence (Q12884 24-760 limits assumed): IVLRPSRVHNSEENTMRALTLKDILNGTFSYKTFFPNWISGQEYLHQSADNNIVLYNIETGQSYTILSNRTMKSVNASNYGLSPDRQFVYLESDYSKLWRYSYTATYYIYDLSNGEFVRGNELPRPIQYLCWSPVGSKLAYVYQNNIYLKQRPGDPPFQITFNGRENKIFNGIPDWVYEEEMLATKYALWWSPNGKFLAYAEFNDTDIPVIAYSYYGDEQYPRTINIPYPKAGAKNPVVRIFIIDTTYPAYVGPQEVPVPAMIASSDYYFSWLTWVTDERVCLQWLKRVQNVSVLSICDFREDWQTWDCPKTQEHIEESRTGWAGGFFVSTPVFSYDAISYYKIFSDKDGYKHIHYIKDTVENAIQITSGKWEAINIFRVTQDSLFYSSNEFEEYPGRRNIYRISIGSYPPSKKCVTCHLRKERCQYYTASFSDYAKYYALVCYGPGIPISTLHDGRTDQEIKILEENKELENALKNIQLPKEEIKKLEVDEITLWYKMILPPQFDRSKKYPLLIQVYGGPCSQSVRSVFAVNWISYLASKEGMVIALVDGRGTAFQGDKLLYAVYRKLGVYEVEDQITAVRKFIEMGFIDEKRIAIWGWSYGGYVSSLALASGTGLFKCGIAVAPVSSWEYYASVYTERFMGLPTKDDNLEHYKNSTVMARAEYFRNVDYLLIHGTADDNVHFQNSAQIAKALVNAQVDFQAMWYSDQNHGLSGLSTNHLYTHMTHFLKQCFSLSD
Procedure: Human blood was obtained from healthy young volunteers. Blood samples were collected in tubes coated with EDTA-K2 by venipuncture method, mixed gently, then kept on ice and centrifuged at 2,500×g for 15 minutes at 4° C. After plasma separation, samples were stored at −80° C. in aliquots of 300 μL.
Exemplary compounds were allowed to interact with the enzyme for 15 minutes at 37° C. After pre-incubation, 50 μl of 200 μM PRXS-AMC substrate were added to the all mixtures. All reactions were carried out for 1 h at 37° C. protected from light. AMC release was detected measuring fluorescence at an excitation/emission wavelength of 380/460 nm using a Multifunction Microplate Reader. All measurements were carried out as single point.

circulating FAPα [2] = target: circulating FAPα (Mesocricetus auratus, UniProt A0ABM2XF29); test: Ex vivo inhibition of circulating FAPα activity from hamster plasma (PRXS-AMC); format: biochemical, Golden Syrian hamster
Procedure: Male Golden Syrian hamsters were provided by National Laboratory Animal Center (NLAC) in Taiwan. The animals were maintained in a hygienic environment under controlled temperature (20-24° C.) and humidity (50%-80%) with 12 hours light/dark cycles. Free access to standard lab diet [MFG (Oriental Yeast Co., Ltd. Japan)] and autoclaved tap water were granted. All aspects of this work including housing, experimentation and disposal of animals were performed in general accordance with the “Guide for the Care and Use of Laboratory Animals: Eighth Edition” (National Academies Press, Washington, D.C., 2011). In addition, the animal care and use protocol was reviewed and approved by the IACUC at Pharmacology Discovery Services Taiwan, Ltd. Immediately after the sacrifice of hamsters, blood samples were collected via terminal cardiac puncture in tubes coated with EDTA-K2, mixed gently, then kept on ice and centrifuged at 2,500×g for 15 minutes at 4° C. After plasma separation, samples were stored at −80° C. in aliquots of 300 μL. To assay exemplary compounds in hamster plasma, a similar protocol as described for human plasma was performed diluting thawed plasma 1:2 in cFAP buffer. […] AMC release was detected measuring fluorescence at an excitation/emission wavelength of 380/460 nm using a Multifunction Microplate Reader. […]

[3] = tested on: human AML cell line MV4-11; test: Cytotoxicity assay in human leukemia cell lines (Cell-Titer Glo); conditions: MV4-11, 48 h, read-out: MV4-11 viability IC50, μM

Chain of circulating FAPα (Mesocricetus auratus, UniProt A0ABM2XF29) (A0ABM2XF29 24-761 limits assumed): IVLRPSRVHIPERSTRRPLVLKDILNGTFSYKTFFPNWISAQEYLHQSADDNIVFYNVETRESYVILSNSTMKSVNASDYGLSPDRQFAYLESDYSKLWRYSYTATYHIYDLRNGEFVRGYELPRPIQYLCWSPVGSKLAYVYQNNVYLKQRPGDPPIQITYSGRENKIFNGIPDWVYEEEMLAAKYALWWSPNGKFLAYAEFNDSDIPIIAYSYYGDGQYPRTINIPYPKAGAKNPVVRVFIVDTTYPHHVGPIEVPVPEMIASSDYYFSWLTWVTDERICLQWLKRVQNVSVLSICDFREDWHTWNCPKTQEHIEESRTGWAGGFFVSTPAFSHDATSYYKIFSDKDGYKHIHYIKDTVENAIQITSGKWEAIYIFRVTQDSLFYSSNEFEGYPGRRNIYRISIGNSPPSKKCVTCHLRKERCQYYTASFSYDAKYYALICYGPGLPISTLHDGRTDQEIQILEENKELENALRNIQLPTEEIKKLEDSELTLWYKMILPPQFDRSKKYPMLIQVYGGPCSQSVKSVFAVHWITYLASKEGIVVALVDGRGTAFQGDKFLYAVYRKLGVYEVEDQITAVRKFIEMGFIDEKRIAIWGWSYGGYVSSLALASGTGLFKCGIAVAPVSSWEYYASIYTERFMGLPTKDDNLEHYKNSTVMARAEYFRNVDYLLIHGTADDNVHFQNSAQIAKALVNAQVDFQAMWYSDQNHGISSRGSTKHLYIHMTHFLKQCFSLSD

SMILES: COc1ccc(C(=O)Nc2cnccc2C(=O)NCC(=O)N2CC(F)(F)C[C@H]2C#N)cc1 [Compound 3, (S)—N-(2-(2-cyano-4,4-difluoropyrrolidin-1-yl)-2-oxoethyl)-3-(4-methoxybenzamido)isonicotinamide]
- pIC50 (circulating FAPα [1]): > 6.00
- pIC50 (circulating FAPα [2]): > 6.00

SMILES: N#C[C@@H]1CC(F)(F)CN1C(=O)CNC(=O)c1ccncc1/C=C/c1ccc(Cl)cc1 [Compound 9, (S,E)-3-(4-chlorostyryl)-N-(2-(2-cyano-4,4-difluoropyrrolidin-1-yl)-2-oxoethyl)isonicotinamide]
- pIC50 (circulating FAPα [1]): > 6.00
- pIC50 (circulating FAPα [2]): > 6.00
- IC50 [3]: > 10 µM
